Data as given in patent publication US4808727A, “Imidazolium hydrogen carbonates” (Hoffmann-LaRoche Inc., priority 1986, dated 1989).

Columns and labels:
Litomosoides carinii = assay: filaricidal activity in cotton rats infected with Litomosoides carinii (dead adult filaria in pleural cavity); type: in vivo, Litomosoides carinii in cotton rats (Sigmodon hispidus); details: sc, 1008 h, s.c., infected cotton rats treated 14 weeks after infection, dissected 42 days after treatment, dosage at which 90% of worms are dead, Probit analysis
Protocol: (§1) The filaricidal activity of the compounds of formula III can be determined, for example, on cotton rats (Sigmodon hispidus) which have been infected with Litomosoides carinii. The infection with L. carinii is transmitted by the blood-sucking mite (Bdellonyssus bacoti) in which the development of the microfilaria to infectious larvae takes place. The cotton rats are infected by exposing them to bites of infected mites. Fourteen (14) weeks after the infection, groups of 2-4 animals are treated subcutaneously with the compound to be tested. Forty-two (42) days after treatment with the compound to be tested, the experimental animals are dissected, whereby the adult filaria are removed from the pleural cavity. Living and dead or encapsulated worms are separated from one another and weighed. The filaricidal activity is expressed as the percentage proportion of dead macrofilaria per treatment group. The ED90 is then determined by means of Probit analysis using the values from different dosage groups. The ED90 is that dosage at which 90% of the worms removed from the pleural cavity are dead. In the following Table, there are compiled the results which have been obtained in the previously described test with representative members of the class of compound defined by formula III. Moreover, the Table contains data concerning the acute toxicity of some of these compounds in mg/per kg in the case of single oral administration to mice.

[1] = acute toxicity, single oral administration to mice; details: mouse, in vivo, p.o.
Protocol: as §1, with “Moreover, the Table contains data concerning the acute toxicity of some of these compounds in mg/per kg in the case of single oral administration to mice.” left out

Row | Compound | ED90 (Litomosoides carinii) [mg/kg] | LD50 [1] [mg/kg]
1 | Cc1n(N=Cc2ccc(N(C)C)cc2)cc[n+]1N=Cc1ccc(N(C)C)cc1.[Cl-] [Compound C, 1,3-bis[[p-(dimethylamino)benzylidene]amino]-2-methylimidazolium chloride] | 0.85 | –
2 | CN(C)C=Cc1n(N=Cc2ccc(N(C)C)cc2)cc[n+]1N=Cc1ccc(N(C)C)cc1.[Cl-] [Compound A, 1,3-bis[[p-(dimethylamino)benzylidene]amino]-2-[2-(dimethylamino)vinyl]imidazolium chloride] | 1 | 312 to 625
3 | CC(C)c1n(N=Cc2ccc(N(C)C)cc2)cc[n+]1N=Cc1ccc(N(C)C)cc1.[Cl-] [Compound B, 1,3-bis[[p-(dimethylamino)benzylidene]amino]-2-isopropyl-imidazolium chloride] | 0.5 | –
4 | CN(C)c1ccc(C=Nn2cc[n+](N=Cc3ccc(N(C)C)cc3)c2-c2ccccc2)cc1.[Cl-] [Compound D, 1,3-bis[[p-(dimethylamino)benzylidene]amino]-2-phenylimidazolium chloride] | < 1 | 1250 to 2500
